# From patent US11479533B2, “Inhibitors of Rho associated coiled-coil containing protein kinase” (KADMON CORPORATION, LLC, priority 2017, dated 2022)
# Assays:
# [1] = target: recombinant ROCK2 (amino acids 1-552) (Homo sapiens (Human), UniProt O75116); assay: Z'-lyte kinase assay, ROCK2; type: biochemical
# Procedure: Determination of compounds ROCK inhibitory activity in vitro (Z'lyte assay): recombinant ROCK1 (amino acids 1-535) and ROCK2 (amino acids 1-552) proteins were purchased from ThermoFisher Scientific. Compounds activities were measured by Z'-lyte kinase kit (ThermoFisher Scientific) and IC50s were calculated.
# Compounds activities were measured by Z'-lyte kinase kit (ThermoFisher Scientific). […] IC50s were calculated using the GraphPad Prism software with kinase activities data that were collected from 9 points serial dilution of compounds treatment. The ROCK inhibition in A7R5 cells and NIH3T3 (Acta2-Luc) cells was performed as described above.
# The percent inhibition rate was calculated by normalizing the kinase activity value obtained with compound treatment against DMSO control value and then applied to the equation, […]. IC50's were calculated using the nonlinear regression curve fit function of the GraphPad Prism software with kinase activities data measured with 9 points 2-fold serial dilution of compounds treatment.
# [2] = tested on: ppMlc (T18/S19) levels in A7R5 cells; assay: A7R5 in-cell ELISA assay (ppMlc); type: cell-based, rat; conditions: Rattus norvegicus, A7R5, A7R5 cells, Table 2; read-out: pMLC IC50 (nM) A7R5
# Procedure: Determination of compounds ROCK inhibitory activity in A7R5 cells: rat aortic smooth muscle cell line A7R5 cells were maintained and treated in DMEM medium with 10% of fetal bovine serum. Cells were seeded with density of 5,000 cells/well in 96-well plates for 24 hours and subsequently treated 90 min with testing compounds. Cells were then fixed and processed according to the In-Cell ELISA Colorimetric Detection Kit manual (Thermo Scientific).
# A7R5 cells were treated with 9 points 2 fold serial dilution of compounds and ppMlc (T18/S19) levels were determined in order to calculate the cellular IC50s of the compounds.
# An A7R5 in-cell ELISA assay was performed to determine ROCK inhibition of test articles. A7R5 cells were treated with 9 points 2-fold serial dilution of compounds and ppMlc (T18/S19) levels were determined to calculate cellular IC50 values of the compounds. […] A7R5 cells were treated with 9 points 2-fold serial dilution of compounds and ppMlc (T18/S19) levels were determined to calculate cellular IC50 values of the compounds using the nonlinear regression curve fit function of the GraphPad Prism software.
# [3] = tested on: ACTA2-promoter-driven-luciferase in NIH3T3 cells; assay: NIH3T3 Acta2-promoter driven-luciferase assay; type: cell-based; conditions: Mus musculus, plus TGFβ1, 24 hr, read-out: NIH3T3, Acta2-luc, IC50
# Procedure: NIH3T3 cells Acta2-promoter driven-luciferase assay: A NIH3T3 cell line stably expressing a luciferase reporter driven by the human ACTA2 gene promoter (−1000-1 bp) was established (NIH3T3-Acta2-luciferase). The cells were plated to confluence and treated with the test compounds plus TGFβ1 for 24 hr. Cells were then lysed and luciferase activity was measured using the LightSwitch luciferase kit from Active Motif.
# ROCK inhibitors can be effectively rank ordered by ACTA2-promoter-driven-luciferase reporter cell assay. NIH3T3 cells stably expressing ACTA2-promoter-driven-luciferase were applied to measure ROCK compounds functional IC50's in cells. Cells were plated in 96 well plates to confluence and treated with 9 points serial dilution of compounds in combination with TGFβ1 for 24 hr. Luciferase activities were measured and compound's IC50's were calculated using the nonlinear regression curve fit function of the GraphPad Prism software. Compounds of the invention gave in cell IC50's under 200 nM, see FIG. 1c.
# recombinant ROCK2 (amino acids 1-552), sequence (O75116 1-552): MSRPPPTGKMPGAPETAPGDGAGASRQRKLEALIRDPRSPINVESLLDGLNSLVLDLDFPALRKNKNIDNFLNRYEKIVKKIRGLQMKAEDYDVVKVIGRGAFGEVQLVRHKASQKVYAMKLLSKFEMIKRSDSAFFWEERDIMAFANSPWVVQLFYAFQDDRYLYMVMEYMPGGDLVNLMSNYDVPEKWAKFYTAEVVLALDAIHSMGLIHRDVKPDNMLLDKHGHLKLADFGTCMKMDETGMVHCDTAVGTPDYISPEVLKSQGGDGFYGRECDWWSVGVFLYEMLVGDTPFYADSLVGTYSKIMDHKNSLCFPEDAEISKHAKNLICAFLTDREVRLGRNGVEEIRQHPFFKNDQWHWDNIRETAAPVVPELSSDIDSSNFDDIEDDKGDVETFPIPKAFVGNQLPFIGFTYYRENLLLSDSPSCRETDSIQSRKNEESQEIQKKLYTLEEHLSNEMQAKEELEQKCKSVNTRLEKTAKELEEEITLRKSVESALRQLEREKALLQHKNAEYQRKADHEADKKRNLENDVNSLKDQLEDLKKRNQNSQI
SMILES,IC50 [1],IC50 [2],IC50 [3],"inhibition at 0.5 µM ([1]; @ 0.5 μM, read-out: ROCK2 % inh (0.5 μM))"
"COCCNC(C(=O)Nc1cc(F)c(-c2cn[nH]c2)cc1OCCN(C)C)c1cccc(OC)c1 (stereo not drawn) [Example 48, N-(2-(2-(dimethylamino)ethoxy)-5-fluoro-4-(1H-pyrazol-4-yl)phenyl)-2-((2-methoxyethyl)amino)-2-(3-methoxyphenyl)acetamide]",67 nM,314 nM,1010 nM,
"COCCN(C)C(C(=O)Nc1cc(F)c(-c2cn[nH]c2)cc1OCCN(C)C)c1cccc(OC)c1 (stereo not drawn) [Example 51, N-(2-(2-(dimethylamino)ethoxy)-5-fluoro-4-(1H-pyrazol-4-yl)phenyl)-2-((2-methoxyethyl)(methyl)amino)-2-(3-methoxyphenyl)acetamide]",8.1 nM,54 nM,101 nM,
"COCCNC(C(=O)Nc1ccc(-c2cn[nH]c2)c(F)c1)c1cccc(OC)c1 (stereo not drawn) [Example 55, N-(3-fluoro-4-(1H-pyrazol-4-yl)phenyl)-2-((2-methoxyethyl)amino)-2-(3-methoxyphenyl)acetamide]",17 nM,506 nM,601 nM,
"CNCCN1CCCN(c2ccc(-c3cn[nH]c3)cc2)C(=O)C1c1cccc(OC)c1 (stereo not drawn) [Example 76, 1-(4-(1H-pyrazol-4-yl)phenyl)-3-(3-methoxyphenyl)-4-(2-(methylamino)ethyl)-1,4-diazepan-2-one]",950 nM,,,
"CCNC(C(=O)Nc1ccc(-c2cn[nH]c2)cc1)c1ccc(F)cc1 (stereo not drawn) [Example 12, N-(4-(1H-pyrazol-4-yl)phenyl)-2-(ethylamino)-2-(4-fluorophenyl)acetamide]",30 nM,458 nM,735 nM,
"CCNC(C(=O)Nc1ccc(-c2cn[nH]c2)cc1)c1cccc(F)c1 (stereo not drawn) [Example 15, N-(4-(1H-pyrazol-4-yl)phenyl)-2-(ethylamino)-2-(3-fluorophenyl)acetamide]",24 nM,655 nM,1050 nM,
"COCCNC(C(=O)Nc1ccc(-c2cn[nH]c2)cc1)c1cccc(OC)c1 (stereo not drawn) [Example 25, N-(4-(1H-pyrazol-4-yl)phenyl)-2-((2-methoxyethyl)amino)-2-(3-methoxyphenyl)acetamide]",94 nM,692 nM,663 nM,
"CN[C@@H](C(=O)Nc1ccc(-c2cn[nH]c2)cc1)c1ccc(Cl)cc1 [Example 65, (R)—N-(4-(1H-pyrazol-4-yl)phenyl)-2-(4-chlorophenyl)-2-(methylamino)acetamide]",1.2 nM,65 nM,51 nM,
"CNC(C(=O)Nc1ccc(-c2cn[nH]c2)cc1)c1cccc(N(C)C)c1 (stereo not drawn) [Example 28, N-(4-(1H-pyrazol-4-yl)phenyl)-2-(3-(dimethylamino)phenyl)-2-(methylamino)acetamide]",82 nM,947 nM,335 nM,
"CNC(C(=O)Nc1ccc(-c2cn[nH]c2)cc1)c1ccc(N(C)C)cc1 (stereo not drawn) [Example 31, N-(4-(1H-pyrazol-4-yl)phenyl)-2-(4-(dimethylamino)phenyl)-2-(methylamino)acetamide]",55 nM,667 nM,1230 nM,
"CNC(C(=O)Nc1ccc(-c2cn[nH]c2)cc1)c1ccc2nc(C)[nH]c2c1 (stereo not drawn) [Example 35, N-(4-(1H-pyrazol-4-yl)phenyl)-2-(2-methyl-1H-benzo[d]imidazol-6-yl)-2-(methylamino)acetamide]",486 nM,> 5000 nM,> 5000 nM,
"CCNC(C(=O)Nc1ccc(-c2cn[nH]c2)cc1)c1ccc(C)cc1 (stereo not drawn) [Example 11, N-(4-(1H-pyrazol-4-yl)phenyl)-2-(ethylamino)-2-(p-tolyl)acetamide]",4 nM,69 nM,106 nM,
"COc1cccc(C(NCCOC(C)C)C(=O)Nc2ccc(-c3cn[nH]c3)cc2)c1 (stereo not drawn) [Example 40, N-(4-(1H-pyrazol-4-yl)phenyl)-2-((2-isopropoxyethyl)amino)-2-(3-methoxyphenyl)acetamide]",45 nM,632 nM,826 nM,
"CNC(C(=O)Nc1ccc(-c2cn[nH]c2)cc1)c1cccc(C(=O)OC)c1 (stereo not drawn) [Example 30, Methyl 3-(2-((4-(1H-pyrazol-4-yl)phenyl)amino)-1-(methylamino)-2-oxoethyl)benzoate]",18 nM,247 nM,> 5000 nM,
"CNC(C(=O)Nc1ccc(-c2cn[nH]c2)cc1)c1ccc(OC)c(F)c1 (stereo not drawn) [Example 23, N-(4-(1H-pyrazol-4-yl)phenyl)-2-(3-fluoro-4-methoxyphenyl)-2-(methylamino)acetamide]",,435 nM,252 nM,91%
"COCCCNC(C(=O)Nc1ccc(-c2cn[nH]c2)cc1)c1cccc(OC)c1 (stereo not drawn) [Example 36, N-(4-(1H-pyrazol-4-yl)phenyl)-2-(3-methoxyphenyl)-2-((3-methoxypropyl)amino)acetamide]",16 nM,1580 nM,1550 nM,
"CNC(C(=O)Nc1ccc(-c2cn[nH]c2)cc1)c1ccc(C)cc1 (stereo not drawn) [Example 21, N-(4-(1H-pyrazol-4-yl)phenyl)-2-(methylamino)-2-(p-tolyl)acetamide]",3.1 nM,47 nM,66 nM,
"COc1cccc(C(NCC(N)=O)C(=O)Nc2ccc(-c3cn[nH]c3)cc2)c1 (stereo not drawn) [Example 41, N-(4-(1H-pyrazol-4-yl)phenyl)-2-((2-amino-2-oxoethyl)amino)-2-(3-methoxyphenyl)acetamide]",12 nM,1250 nM,> 5000 nM,
"CNC(C(=O)Nc1ccc(-c2cn[nH]c2)cc1)c1cccc(C)c1 (stereo not drawn) [Example 14, N-(4-(1H-pyrazol-4-yl)phenyl)-2-(methylamino)-2-(m-tolyl)acetamide]",6.8 nM,353 nM,496 nM,
"CN[C@H](C(=O)Nc1ccc(-c2cn[nH]c2)cc1)c1ccc(Cl)cc1 [Example 64, (S)—N-(4-(1H-pyrazol-4-yl)phenyl)-2-(4-chlorophenyl)-2-(methylamino)acetamide]",24 nM,379 nM,227 nM,
"CNC(C(=O)Nc1ccc(-c2cn[nH]c2)cc1)c1ccc(OC)cc1 (stereo not drawn) [Example 9, N-(4-(1H-pyrazol-4-yl)phenyl)-2-(4-methoxyphenyl)-2-(methylamino)acetamide]",15.4 nM,355 nM,,
"COCCNC(C(=O)N(C)c1ccc(-c2cn[nH]c2)cc1)c1cccc(OC)c1 (stereo not drawn) [Example 49, N-(4-(1H-pyrazol-4-yl)phenyl)-2-((2-methoxyethyl)amino)-2-(3-methoxyphenyl)-N-methylacetamide]",> 1000 nM,,,
"CNC(C(=O)Nc1cc(F)c(-c2cn[nH]c2)cc1OCCCN(C)C)c1cccc(OC)c1 (stereo not drawn) [Example 70, N-(2-(3-(dimethylamino)propoxy)-5-fluoro-4-(1H-pyrazol-4-yl)phenyl)-2-(3-methoxyphenyl)-2-(methylamino)acetamide]",7.7 nM,134 nM,,
"COc1cccc(C2C(=O)N(c3ccc(-c4cn[nH]c4)cc3)CCCN2CC2CC2)c1 (stereo not drawn) [Example 74, 1-(4-(1H-pyrazol-4-yl)phenyl)-4-(cyclopropylmethyl)-3-(3-methoxyphenyl)-1,4-diazepan-2-one]",> 1000 nM,,,
"COCC(C)(C)NC(C(=O)Nc1ccc(-c2cn[nH]c2)cc1)c1cccc(OC)c1 (stereo not drawn) [Example 43, N-(4-(1H-pyrazol-4-yl)phenyl)-2-((1-methoxy-2-methylpropan-2-yl)amino)-2-(3-methoxyphenyl)acetamide]",47 nM,1490 nM,,
"CNCCCNC(C(=O)Nc1ccc(-c2cn[nH]c2)cc1)c1cccc(OC)c1 (stereo not drawn) [Example 42, N-(4-(1H-pyrazol-4-yl)phenyl)-2-(3-methoxyphenyl)-2-((3-(methylamino)-propyl)amino)acetamide]",6.5 nM,359 nM,,
"COc1cccc(C2C(=O)N(c3ccc(-c4cn[nH]c4)cc3)CCCN2CCN(C)C)c1 (stereo not drawn) [Example 75, 1-(4-(1H-pyrazol-4-yl)phenyl)-4-(2-(dimethylamino)ethyl)-3-(3-methoxyphenyl)-1,4-diazepan-2-one]",> 1000 nM,,,
